Test results taken from patent US10035780B2, “Quinazoline scaffold based compounds, pharmaceutical compositions and methods of use thereof” (TECHNION RESEARCH & DEVELOPMENT FOUNDATION LTD., priority 2014, dated 2018).
Entries after “also recorded” stand apart in the source; their conditions may differ.

Key:
[1] = test system: U118MG cells; experiment: Protection against cell death induced by glutamate in U118MG cell culture; assay type: cell-based, human
Description: Cell cultures of various human glial type cell lines (T98G, U87MG, A172, U118MG), as well as human neuronal type cell lines SH-SY 5Y and Be(2)-C were used to test the new compounds. In addition, the rat glioma cell line C6 was used. PC12 cells originating from rats were used as another cell line displaying neuronal characteristics. The applicants also have produced, by genetic manipulation, a modified rat C6 glial cell strain and a modified human U118MG glial type cell strain, both under-expressing the TSPO, which allows to study TSPO specific effects, including of the compounds of the invention, which can be done according to methods described previously (Weisinger et al. Biochemistry. 2004; 43:12315-21; Levin et al. 2005; Zeno et al., 2009).
The protective capabilities of the compounds of the invention and involvement of the TSPO were tested in cell culture, using cell lines of glial and neuronal type, cultured and testing according to standard methods (Kugler et al. 2008; Zeno et al. 2009; Dadon-Nachum et al. Stem Cell Rev. 2011; 7:664-71). Furthermore, primary cell cultures are also used (Banker, G. et al. Culturing Nerve Cells, 2nd Edition, The MIT Press (1998). Treatments included: (1) exposure to glutamate (35 mM), Abeta(1-42), NH4Cl, CoCl2, and nitric oxide (NO) donors, in order to mimic particular aspects of neurodegeneration; (2) treatment with the novel compounds and with traditional TSPO ligands as comparative treatment; and (3) TSPO knockdown by genetic manipulation.
Techniques and parameters assayed are summarized here: Total protein levels (Bradford. Anal Biochem. 1976; 72:248-54); TSPO ligand binding assays (Kugler et al. 2008; Levin et al. 2005; Danovich et al. Eur Neuropsychopharmacol. 2008; 18:24-33) cell death, including apoptosis and necrosis and related molecular biological processes (Soustiel et al. Neuropathol Appl Neurobiol. 2008; 34:412-23; Soustiel et al. Exp Neurol. 2008; 214:201-8; Zeno et al. 2009); mitochondrial transmembrane potential collapse (Chelli et al. Biochem Pharmacol. 2004; 68:125-34; Kugler et al. 2008; Zeno et al., 2009; Shargorodsky et al. Apoptosis. 2012; 17:647-65), reactive oxygen species (ROS) generation as a measure of oxidative stress (Veenman et al. 2008; Zeno et al. 2009); TSPO knockdown (Levin et al. 2005; Zeno et al. 2009); expression levels of mitochondrial TSPO and associated proteins (Veenman et al. 2002; Levin et al. 2005; Veenman et al. 2008); gene expression with RT-PCR and microarray analysis (Bode et al. 2012; Veenman et al. 2012). Parameters of inflammation, immune response, migration, and the cell cycle are also tested. All these approaches can also be applied for quality control of the compounds.
The compounds of the invention protect against cell death induced by glutamate in cell culture of U118MG cells of astrocytic origin (FIGS. 1, 2, 3 and 8) or SH SY 6Y cells of neuronal origin (FIG. 4). […] In the control group, 35 mM of glutamate killed ˜60% of the cells.
The experimental setup is explained using FIG. 8B as an example: • 1. Control: Cell death levels are taken as 0% • 2. Glu: Cell death levels induced by glutamate are over 50% • 3. […] Glu+Cpd 5: When Cpd 5 is given as a treatment to counteract cell death induced by glutamate, increasing concentrations of Cpd 5 reduce cell death levels from over 50% to less than 5%.

[2] = Pharmacokinetic properties in the mouse after i.p. administration; assay type: in vivo
[3] = target: TSPO (Homo sapiens (Human), UniProt P30536); assay type: binding; details: displacement of [3H]PK 11195 from TSPO
TSPO, sequence (P30536 whole entry): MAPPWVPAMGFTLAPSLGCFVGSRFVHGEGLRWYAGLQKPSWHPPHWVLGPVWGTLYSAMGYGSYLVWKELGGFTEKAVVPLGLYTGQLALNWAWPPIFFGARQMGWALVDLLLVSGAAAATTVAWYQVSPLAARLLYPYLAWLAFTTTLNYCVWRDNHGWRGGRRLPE
Description: Briefly, the assay utilizes radioactive standard ligand [^3H] PK 11195 (1-(2-chlorophenyl)-N-methyl-N-(1-methyl-propyl)-3 isoquinolinecarboxamide), and measures the ability of the compounds of the invention to displace standard ligand in binding to TSPO. Total radioactive binding was determined by measuring the radioactivity of the radioactive ligand-receptor complex, obtained in the reaction of radioactive standard with the TSPO. Radioactive standard and the examined compound were added to the TSPO and after some incubation time the radioactivity of the resulting ligand-receptor complexes was measured with the help of a […]. This radioactivity indicates the binding of the radioactive standard to TSPO. […] This can be expressed as the half maximal inhibitory concentration (IC50), which is a measure of the effectiveness of a compound in inhibiting biological or biochemical function, in this case inhibiting binding of standard radioactive ligand binding to the TSPO. A derivative of the IC50 is the Ki, which is the calculated binding affinity of the novel compound to the TSPO.
Binding to TSPO was evaluated using a [^3H]PK 11195 radio-assay, as described above.

## CCN(C)C(=O)Oc1nc(-c2ccccc2)nc2ccccc12 [Compound 1, 2-phenylquinazolin-4-yl ethyl(methyl)carbamate]
[1]; U118MG cells, 35 mM glutamate, compound 1-100 μM
  protection against cell death induced by glutamate: significantly protects; also recorded: protect better and more consistently; also recorded: significantly reduces glutamate-induced cell death levels
[1]; cell culture, grade in words
  Protection against glutamate-induced cell death: Excellent
[1]; compound alone, no glutamate
  lethal effect of compound by itself: only very little lethal effect by itself
[2]
  distribution to the brain: quite quickly distributed to the brain
[2]; brain, ip, read-out: Uptake ratio to the brain
  Kp: 0.2
[2]; in vivo, ip
  half-life: 210 min
[3]
  Ki: ~60 nM
